Reference: article PMC11962866 (RSC Advances, 2025)
In brackets after ≈: the same amount, converted by molar mass. Entries after “also recorded” stand apart in the source; their conditions may differ.

Key:
Strain 17# = test: Antifungal activity against fluconazole-resistant strain; format: cell-based; settings: Candida albicans, read-out: MIC80 Strain 17#
C. neo = test: In vitro antifungal assay; format: cell-based; settings: Cryptococcus neoformans, read-out: MIC80 C. neo
C. alb SC5314 [1] = test: GC-MS analysis of sterol composition; format: cell-based, Candida albicans; settings: 0.03 μg mL^−1, 24 h
C. alb (SC5314) = test: In vitro antifungal assay; format: cell-based; settings: Candida albicans, SC5314, read-out: MIC80 C. alb (SC5314)
[2] = test system: azole-resistant strain 904; test: In vivo antifungal potency, mouse infection model, kidney fungal burden; settings: mice, tail vein infection with strain 904, intraperitoneal, day 5
Strain 901 = test: Antifungal activity against fluconazole-resistant strain; format: cell-based; settings: Candida albicans, 901, read-out: MIC80 Strain 901
MRC-5 cells = test: Cytotoxicity assay on normal cells; format: cell-based, human; settings: Homo sapiens, MRC5, 72 h, read-out: IC50 on MRC-5 cell lines
[3] = test system: azole-resistant strain 904; test: Yeast-to-hypha morphological transition; format: cell-based, Candida albicans; settings: 0.25 μg mL^−1, 5 h
Strain 632 = test: Antifungal activity against fluconazole-resistant strain; format: cell-based; settings: Candida albicans, 632, read-out: MIC80 Strain 632
C. alb SC5314 [4] = test: Morphological observation of fungal cells by TEM; format: cell-based, Candida albicans; settings: 2 μg mL^−1, 24 h
[5] = test system: ERG11 and CDR1 of azole-resistant strain 904; test: RT-PCR expression of resistant genes ERG11 and CDR1; format: cell-based, Candida albicans; settings: 0.25 μg mL^−1, strain 904, RT-PCR
[6] = Metabolic stability assay of liver microsomes; format: in vitro ADME; settings: mouse
Plasma stability assay = settings: male, SD, rat
Strain CaR = test: Antifungal activity against fluconazole-resistant strain; format: cell-based; settings: Candida albicans, read-out: MIC80 Strain CaR
[7] = test system: strain 904, fluconazole-resistant strain of C. albicans; test: Minimum fungicidal concentration; format: cell-based, Candida albicans
[8] = test system: five fluconazole-resistant strains obtained from clinical isolation; test: Antifungal activity, span over five fluconazole-resistant strains; format: cell-based, Candida albicans
Strain 904 [9] = test: Antifungal activity against fluconazole-resistant strain; format: cell-based, Candida albicans; settings: for MIC80: Candida albicans, 904, read-out: MIC80 Strain 904; for MIC: Candida albicans, 904, read-out: MIC against C. alb
[10] = test system: azole-resistant strain 904; test: Biofilm formation; format: cell-based, Candida albicans
Strain 904 [11] = test: Time-kill test; format: cell-based, Candida albicans; settings: A11 at 8 × MIC, 16 × MIC, 32 × MIC
Strain 904 [12] = test: ROS level; format: cell-based, Candida albicans; settings: 0.25 μg mL^−1, compared to blank and fluconazole groups

Row | SMILES | MIC80 (Strain 17#) [µg/mL] | MIC80 (C. neo) [µg/mL] | Effect on ergosterol biosynthesis / sterol composition (C. alb SC5314 [1]) | MIC80 (C. alb (SC5314)) [µg/mL] | Efficacy in vivo (CFU fungal burden in kidneys) [2] | MIC80 (Strain 901) [µg/mL] | IC50 (MRC-5 cells) [µM] | Morphological transition from yeast to hyphae [3] | MIC80 (Strain 632) [µg/mL] | Fungal cell morphology (TEM) (C. alb SC5314 [4]) | Expression of ERG11 and CDR1 [5] | half-life [6] [h] | microsomal CLint [6] [µL/min/mg] | half-life (Plasma stability assay) [h] | remaining at 3 h (Plasma stability assay) [%] | MIC80 (Strain CaR) [µg/mL] | MIC80 (Strain 904 [9]) [µg/mL] | MIC (Strain 904 [9]) [µg/mL] | further results
1 | OC(Cn1cncn1)(Cn1cncn1)c1ccc(F)cc1F [Fluconazole, fluconazole, reference compound] | > 128 | 8 (≈ 26.1 µM) | effectively suppresses ergosterol biosynthesis | 4 (≈ 13.1 µM) | ineffective | > 128 | > 100 | did not inhibit the morphological transition | > 128 | the cell membrane was damaged | overexpression of drug resistance gene ERG11 and CDR1 | > 2 | 2 | > 6 | 102 | > 128 | > 128 | > 128 | MFC ([7]; Candida albicans, read-out: MFC against C. alb): > 128 µg/mL; Antifungal activity against the tested resistant strains (in words) [8]: completely inactive
2 | O=C(Nc1ccc(F)cc1F)c1ccc(COC(Cn2ccnc2)c2ccc(Cl)cc2Cl)cc1 (stereo not shown) [A11, 4-((1-(2,4-Dichlorophenyl)-2-(1H-imidazol-1-yl)ethoxy)methyl)-N-(2,4-difluorophenyl)benzamide] | 1 (≈ 1.99 µM) | 0.06 (≈ 0.119 µM) | effectively suppresses ergosterol biosynthesis | 0.03 (≈ 0.0597 µM) | potent efficacy; also recorded: significantly reduced fungal burden | 1 (≈ 1.99 µM) | > 100 | completely hindered the morphogenetic transition | 2 (≈ 3.98 µM) | disrupt the structural integrity of the cells | reduced to basic levels | 0.258 | 89.4 | > 6 | 73.9 | 2 (≈ 3.98 µM) | 0.125 (≈ 0.249 µM) | 0.125 (≈ 0.249 µM) | Effect on mature biofilms [10]: dose-dependent destruction of mature fungal biofilms; Time-kill fungicidal effect (Strain 904 [11]): potent fungicidal effects at three concentrations; Intracellular ROS levels (Strain 904 [12]): significant increase in intracellular ROS levels; MFC/MIC ([7]; strain 904): 16; MIC80 ([8]; Candida albicans, read-out: MIC80 span over the tested resistant strains): 0.125 to 2 µg/mL (≈ 0.249 to 3.98 µM)
